According to US7829665B2 (priority 2005, dated 2010):
pEC50, pIC50: −log10 of the molar value. Like-named read-outs stand apart in the source and are kept apart here.

Experiments:
[1] = test system: HCV sub-genomic replicon in GS4.3 cells (HuH-7 hepatoma cells); test: Quantitation by ELISA of Neomycin phosphotransferase II (NPTII) in the HCV sub-genomic replicon, GS4.3; format: cell-based, hepatitis C virus; settings: Hepatitis C virus, Huh-7
Method: The HCV sub-genomic replicon (1377/NS3-3′, accession No. AJ242652), stably maintained in HuH-7 hepatoma cells, was created by Lohmann et al. Science 285: 110-113 (1999). The replicon-containing cell culture, designated GS4.3, was obtained from Dr. Christoph Seeger of the Institute for Cancer Research, Fox Chase Cancer Center, Philadelphia, Pa.
GS4.3 cells were maintained at 37° C., 5% CO2, in DMEM (Gibco 11965-092) supplemented with L-glutamine 200 mM (100×) (Gibco25030-081), non-essential amino acids (NEAA) (Biowhittaker 13-114E), heat-inactivated (HI) Fetal Bovine Serum (FBS) (Hyclone SH3007.03) and 750 μg/ml geneticin (G418) (Gibco 10131-035). Cells were sub-divided 1:3 or 4 every 2-3 days.
24 h prior to the assay, GS4.3 cells were collected, counted, and plated in 96-well plates (Costar 3585) at 7500 cells/well in 100 μl standard maintenance medium (above) and incubated in the conditions above. To initiate the assay, culture medium was removed, cells were washed once with PBS (Gibco 10010-023) and 90 μl Assay Medium (DMEM, L-glutamine, NEAA, 10% HI FBS, no G418) was added. Inhibitors were made as a 10× stock in Assay Medium, (3-fold dilutions from 10 μM to 56 pM final concentration, final DMSO concentration 1%), 10 μl were added to duplicate wells, plates were rocked to mix, and incubated as above for 72 h.
An NPTII Elisa kit was obtained from AGDIA, Inc. (Compound direct ELISA test system for Neomycin Phosphotransferase II, PSP 73000/4800). Manufacturer's instructions were followed, with some modifications. 10×PEB-1 lysis buffer was made up to include 500 μM PMSF (Sigma P7626, 50 mM stock in isopropanol). After 72 h incubation, cells were washed once with PBS and 150 μl PEB-1 with PMSF was added per well. Plates were agitated vigorously for 15 minutes, room temperature, then frozen at −70° C. Plates were thawed, lysates were mixed thoroughly, and 100 μl were applied to an NPTII Elisa plate. A standard curve was made. Lysate from DMSO-treated control cells was pooled, serially diluted with PEB-1 with PMSF, and applied to duplicate wells of the ELISA plate, in a range of initial lysate amount of 150 ul-2.5 ul. In addition, 100 μl buffer alone was applied in duplicate as a blank. Plates were sealed and gently agitated at room temperature for 2 h. Following capture incubation, the plates were washed 5×300 μl with PBS-T (0.5% Tween-20, PBS-T was supplied in the ELISA kit). For detection, a 1× dilution of enzyme conjugate diluent MRS-2 (5×) was made in PBS-T, into which 1:100 dilutions of enzyme conjugates A and B were added, as per instructions. Plates were resealed, and incubated with agitation, covered, room temperature, for 2 h. The washing was then repeated and 100 μl of room temperature TMB substrate was added. After approximately 30 minutes incubation (room temperature, agitation, covered), the reaction was stopped with 50 μl 3M sulfuric acid. Plates were read at 450 nm on a Molecular Devices Versamax plate reader.
Inhibitor effect was expressed as a percentage of DMSO-treated control signal, and inhibition curves were calculated using a 4-parameter equation: y=A+((B−A)/(1+((C/x)^D))), where C is half-maximal activity or EC50.

[2] = target: T1, full-length NS3/NS4A-2 (HCV NS3 protease) (Hepatitis C virus genotype 1a, UniProt P27958); test: NS3-NS4 protease assay / NS3 inhibition assay (RETS1 substrate, fluorescence kinetic read); format: biochemical
T1 construct: Recombinant E. coli or Baculovirus full-length NS3 was diluted to 3.33 μM with assay buffer; made in house; host or cells: E. coli or baculovirus (BV) expression system
T1 sequence (P27958 1027-1657): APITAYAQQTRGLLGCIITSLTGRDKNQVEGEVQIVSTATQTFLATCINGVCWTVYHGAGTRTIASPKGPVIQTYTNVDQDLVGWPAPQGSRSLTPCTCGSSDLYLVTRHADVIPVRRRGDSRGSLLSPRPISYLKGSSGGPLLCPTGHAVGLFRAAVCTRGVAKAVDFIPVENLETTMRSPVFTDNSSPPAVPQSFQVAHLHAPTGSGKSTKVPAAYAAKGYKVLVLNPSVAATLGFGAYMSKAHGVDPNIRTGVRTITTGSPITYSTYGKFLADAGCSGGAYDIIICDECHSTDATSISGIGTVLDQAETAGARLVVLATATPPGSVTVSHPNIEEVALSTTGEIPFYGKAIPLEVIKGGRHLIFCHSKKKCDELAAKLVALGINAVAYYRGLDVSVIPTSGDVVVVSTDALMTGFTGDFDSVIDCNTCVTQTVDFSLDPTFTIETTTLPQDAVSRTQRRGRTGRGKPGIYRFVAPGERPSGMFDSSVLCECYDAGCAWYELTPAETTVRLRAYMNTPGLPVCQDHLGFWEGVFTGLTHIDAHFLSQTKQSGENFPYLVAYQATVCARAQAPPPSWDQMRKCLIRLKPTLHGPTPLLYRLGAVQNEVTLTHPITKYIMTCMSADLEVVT
How it was run: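 Ki values come from IC50 fits corrected via Ki=IC50/(1+[S]/Km), with Km 2.03 μM for E. coli and 1.74 μM for baculovirus full-length NS3. Enzyme (2 or 3 nM NS3, respectively, complexed with NS4A-2) sat with compound, top concentration 50 microM, for 10 min at room temperature. Cleavage of RETS1 (8 μM working solution) was then followed by fluorescence (335/495 nm) over 30 min.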

[3] = GS4.3 cells, 72 h incubation, NPTII ELISA, read-out: Replicon EC50
[4] = recombinant E. coli or Baculovirus full-length NS3 with NS4A-2, read-out: NS3-NS4 IC50

## O=C(N[C@H]1CCCCC/C=C\[C@@H]2C[C@@]2(C(=O)NS(=O)(=O)NC2CC2)NC(=O)[C@@H]2C[C@@H](OC(=O)N3CCc4ccccc4C3)CN2C1=O)OC1CCCC1 [Compound 231]
[1]; [3]
  pEC50: > 7.00
[2]; [4]
  pIC50: > 7.00

## O=C(N[C@H]1CCCCC/C=C\[C@@H]2C[C@@]2(C(=O)O)NC(=O)[C@@H]2C[C@@H](OC(=O)N3Cc4cccc(F)c4C3)CN2C1=O)OC1CCCC1 [Compound 116]
[1]; [3]
  pEC50: > 5.00
[2]; [4]
  pIC50: > 7.00

## CC(C)(C)OC(=O)N[C@H]1CCCCC/C=C\[C@@H]2C[C@@]2(C(=O)NS(=O)(=O)C2CC2)NC(=O)C2Cc3cc(Oc4cccc(C(F)(F)F)c4)ccc3CN2C1=O (stereo partly drawn) [Compound 2008, tert-Butyl (1aS,9S,19aR,Z)-19a-(cyclopropylsulfonylcarbamoyl)-10,18-dioxo-15-(3-(trifluoromethyl)phenoxy)-1a,4,5,6,7,8,9,10,12,17,17a,18,19,19a-tetradecahydro-1H-1,14-diaza-bicyclo[13.1.0]hexadeca-1(15), 2-dieno[11,12-b]isoquinolin-9-ylcarbamate]
[1]; [3]
  pEC50: > 5.00
[2]; [4]
  pIC50: > 6.00

## CC(C)(C)OC(=O)N[C@H]1CCCCC/C=C\[C@@H]2C[C@@]2(C(=O)NCCO)NC(=O)[C@@H]2C[C@@H](OC(=O)N3Cc4cccc(F)c4C3)CN2C1=O [Compound 620]
[1]; [3]
  pEC50: > 5.00
[2]; [4]
  pIC50: > 6.00

## CC(C)(C)OC(=O)N[C@H]1CCCCC/C=C\[C@@H]2C[C@@]2(C(=O)Nc2n[nH]c(C3CC3)n2)NC(=O)[C@@H]2C[C@@H](OC(=O)N3Cc4cccc(F)c4C3)CN2C1=O [Compound 635]
[1]; [3]
  pEC50: > 6.00
[2]; [4]
  pIC50: > 7.00

## CC(C)(C)OC(=O)N[C@H]1CCCCC/C=C\[C@@H]2C[C@@]2(C(=O)NS(=O)(=O)c2cc(Cl)sc2Cl)NC(=O)[C@@H]2C[C@@H](OC(=O)N3Cc4cccc(F)c4C3)CN2C1=O [Compound 162]
[1]; [3]
  pEC50: > 7.00
[2]; [4]
  pIC50: > 7.00

## CC(C)(C)OC(=O)N[C@H]1CCCCC/C=C\[C@@H]2C[C@@]2(C(=O)NCCN2CCCCC2)NC(=O)[C@@H]2C[C@@H](OC(=O)N3Cc4cccc(F)c4C3)CN2C1=O [Compound 604]
[1]; [3]
  pEC50: < 5.00
[2]; [4]
  pIC50: < 5.00

## O=C(Cc1ccccc1)N[C@H]1CCCCC/C=C\[C@@H]2C[C@@]2(C(=O)NS(=O)(=O)C2CC2)NC(=O)C2CCCN2C1=O (some centres unmarked) [Compound 2144]
[1]; Table 26, read-out: EC50
  pEC50: > 6.00
[2]; [4]
  pIC50: < 5.00

## CC(C)(C)OC(=O)N[C@H]1CCCCC/C=C\[C@@H]2C[C@@]2(C(=O)NS(=O)(=O)c2ccc(Cl)s2)NC(=O)[C@@H]2C[C@@H](OC(=O)N3Cc4cccc(Cl)c4C3)CN2C1=O [Compound 164]
[1]; [3]
  pEC50: > 7.00
[2]; [4]
  pIC50: > 7.00

## CC(C)(C)OC(=O)N[C@H]1CCCCC/C=C\[C@@H]2C[C@@]2(C(=O)NS(=O)(=O)C2CC2)NC(=O)[C@@H]2C[C@@H](OC(=O)N3CCc4c(Cl)ccc(Cl)c4C3)CN2C1=O [Compound 256]
[1]; [3]
  pEC50: > 7.00
[2]; [4]
  pIC50: > 7.00

## CNC(=O)[C@@H](NC(=O)[C@@]12C[C@H]1/C=C\CCCCC[C@H](NC(=O)OC(C)(C)C)C(=O)N1C[C@H](OC(=O)N3Cc4cccc(F)c4C3)C[C@H]1C(=O)N2)c1ccc(F)cc1 [Compound 631]
[1]; [3]
  pEC50: > 6.00
[2]; [4]
  pIC50: > 7.00

## O=C(N[C@H]1CCCCC/C=C\[C@@H]2C[C@@]2(C(=O)NS(=O)(=O)N2CCC(F)(F)C2)NC(=O)C2C[C@@H](OC(=O)N3Cc4ccccc4C3)CN2C1=O)OC1CCCC1 (some centres unmarked) [Compound 227]
[1]; [3]
  pEC50: > 7.00
[2]; [4]
  pIC50: > 7.00

## CC(C)(C)OC(=O)N[C@H]1CCCCC/C=C\[C@@H]2C[C@@]2(C(=O)NS(=O)(=O)C2CC2)NC(=O)C2Cc3cc(Oc4cccc(Cl)c4)ccc3CN2C1=O (stereo partly drawn) [Compound 2007, tert-Butyl (1aS,9S,19aR,Z)-15-(3-chlorophenoxy)-19a-(cyclopropylsulfonylcarbamoyl)-10,18-dioxo-1a,4,5,6,7,8,9,10,12,17,17a,18,19,19a-tetradecahydro-1H-11,14-diaza-bicyclo[13.1.0]hexadeca-1(15), 2-dieno[11,12-b]isoquinolin-9-ylcarbamate]
[1]; [3]
  pEC50: > 5.00
[2]; [4]
  pIC50: > 6.00

## CN(C)C(=S)N[C@H]1CCCCC/C=C\[C@@H]2C[C@@]2(C(=O)NS(=O)(=O)C2CC2)NC(=O)[C@@H]2C[C@@H](OC(=O)N3Cc4cccc(F)c4C3)CN2C1=O [Compound 922]
[1]; [3]
  pEC50: > 6.00
[2]; [4]
  pIC50: > 7.00

## CC[C@@H]1C[C@H]2C(=O)N[C@]3(C(=O)NS(=O)(=O)C4CC4)C[C@H]3/C=C\CCCCC[C@H](NC(=O)OC3CCCC3)C(=O)N2C1 [Compound 314]
[1]; [3]
  pEC50: > 5.00
[2]; [4]
  pIC50: > 7.00

## O=C1N[C@]2(C(=O)NS(=O)(=O)C3CC3)C[C@H]2/C=C\CCCCC[C@H](NCc2ccc(Cl)o2)C(=O)N2C[C@H](OC(=O)N3Cc4cccc(F)c4C3)C[C@@H]12 [Compound 914]
[1]; [3]
  pEC50: > 7.00
[2]; [4]
  pIC50: > 7.00

## N[C@H]1CCCCC/C=C\[C@@H]2C[C@@]2(C(=O)NS(=O)(=O)C2CC2)NC(=O)[C@@H]2C[C@@H](OC(=O)N3Cc4c(Cl)ccc(Cl)c4C3)CN2C1=O [Compound 156]
[1]; [3]
  pEC50: > 6.00
[2]
  pIC50: > 7.00

## CC(C)(C)OC(=O)N[C@H]1CCCC(F)(F)C/C=C\[C@@H]2C[C@@]2(C(=O)O)NC(=O)[C@@H]2C[C@@H](OC(=O)N3Cc4cccc(F)c4C3)CN2C1=O [Compound 1006, (2R,6S,13aS,14aR,16aS,Z)-6-(tert-butoxycarbonylamino)-9,9-difluoro-2-(4-fluoroisoindoline-2-carbonyloxy)-5,16-dioxo-1,2,3,5,6,7,8,9,10,11,13a,14,14a,15,16,16a-hexadecahydrocyclopropa(e)prrolo[1,2-a][1,4]diazacyclopentadecine-14a-carboxylic acid]
[1]; [3]
  pEC50: > 5.00
[2]; [4]
  pIC50: > 7.00

## CN(C)S(=O)(=O)NC(=O)[C@@]12C[C@H]1/C=C\CCCCC[C@H](NC(=O)OC(C)(C)C)C(=O)N1C[C@H](OC(=O)N3Cc4cccc(Cl)c4C3)C[C@H]1C(=O)N2 [Compound 114]
[1]; [3]
  pEC50: > 7.00
[2]; [4]
  pIC50: > 7.00

## Cc1ccccc1S(=O)(=O)NC(=O)[C@@]12C[C@H]1/C=C\CCCCC[C@H](N)C(=O)N1C[C@H](OC(=O)N3Cc4cccc(F)c4C3)C[C@H]1C(=O)N2 [Compound 159]
[1]; [3]
  pEC50: > 6.00
[2]
  pIC50: > 7.00

## CC(C)(O)CC(=O)N[C@H]1CCCCC/C=C\[C@@H]2C[C@@]2(C(=O)NS(=O)(=O)C2CC2)NC(=O)[C@@H]2C[C@@H](OC(=O)N3Cc4cccc(F)c4C3)CN2C1=O [Compound 252]
[1]; [3]
  pEC50: > 5.00
[2]; [4]
  pIC50: > 7.00

## C[C@H](NC(=O)[C@@]12C[C@H]1/C=C\CCCCC[C@H](NC(=O)OC(C)(C)C)C(=O)N1C[C@H](OC(=O)N3Cc4cccc(F)c4C3)C[C@H]1C(=O)N2)c1ccc(F)cn1 [Compound 628]
[1]; [3]
  pEC50: > 6.00
[2]; [4]
  pIC50: > 6.00
